Legend:
[1] = test system: SKOV-3 ovarian cancer cells; assay: MTS cytotoxicity and combination index, SKOV-3; format: cell-based, human
[2] = test system: ES-2 ovarian cancer cells; assay: MTS cytotoxicity and combination index, ES-2; format: cell-based
Hela cells = assay: MTS cytotoxicity and combination index, Hela; format: cell-based; conditions: 72 h
[3] = test system: SKOV-3 ovarian cancer xenografts; assay: In vivo anticancer efficacy
mouse models = mouse models ref 37, 38; cited from earlier work
[4] = test system: SKOV3 ovarian cancer tumor; assay: Tissue biodistribution of Pt; format: in vivo, mouse; conditions: 48 h post-injection, CDDP 6 mg/kg i.v.
[5] = Plasma pharmacokinetics of platinum
SKOV-3 tumor xenograft = assay: NIRF optical animal imaging; design: species or system mouse; conditions: in vivo NIRF after tail vein injection
[6] = Pt in plasma, two compartment model, i.v.

CC(=O)O[C@H]1C(=O)[C@@]2(C)[C@H]([C@H](OC(=O)c3ccccc3)[C@]3(O)C[C@H](OC(=O)[C@H](O)[C@@H](NC(=O)c4ccccc4)c4ccccc4)C(C)=C1C3(C)C)[C@]1(OC(C)=O)CO[C@@H]1C[C@@H]2O [PTX, paclitaxel]
IC50 ([1]; Homo sapiens, SK-OV-3, 72 h, read-out: IC50, as PTX concentration): 0.032 mg/L | IC50 ([2]; 72 h, read-out: IC50, as PTX concentration): 0.055 mg/L | IC50 (Hela cells; Homo sapiens, HeLa, read-out: IC50, as PTX concentration): 0.02 mg/L

[NH2][Pt]([NH2])([Cl])[Cl] [CDDP, Cisplatin]
IC50, as CDDP concentration ([1]; SKOV-3, 72 h, first figure of x/y cells): 1.354 mg/L | Medium survival time ([3]; 4 mg/kg CDDP): 15 days | Body weight loss ([3]; 4 mg/kg CDDP i.v. day 0, 4, 8, on day 12): exceeded 20% | WBC counting vs PBS control ([3]; 4 mg/kg CDDP, day 7 after last injection): significantly decreased | Animal death due to severe side effects ([3]; 4 mg/kg CDDP, died on day 12, 13, 15, 16 and 17): all animals | Maximum tolerated dose (MTD) (mouse models): ≤ 4 mg/kg | Kidney/tumor ratio of Pt concentrations [4]: 4 | Liver/tumor ratio of Pt concentrations [4]: 2 | IC50, as CDDP concentration ([2]; ES2, 72 h, first figure of x/y cells): 0.92 mg/L | IC50, as CDDP concentration (Hela cells; Hela, first figure of x/y cells): 2.427 mg/L | Pt of injected dose remaining in plasma ([5]; 30 min after i.v. injection): 5% | Pt of injected dose remaining in plasma ([5]; 24 h after i.v. injection): less than 1% | CL2 [5, 6]: 0.5593 L/h/kg | t1/2α [5, 6]: 2.64 min | Clearance rate (Cl) relative to nanotherapeutics, both phases ([5]; mouse, in vivo): 20–25 fold

CCCCCCCCCCCCCCCCCCN1/C(=C/C=C/C=C/C2=[N+](CCCCCCCCCCCCCCCCCC)c3ccccc3C2(C)C)C(C)(C)c2ccccc21.[O-][Cl+3]([O-])([O-])[O-] [free DiD]
Tumor fluorescence in vivo (SKOV-3 tumor xenograft): very weak tumor fluorescence

— article PMC4312198 (Biomaterials, 2014)
